Laboratory results taken from ChEMBL document CHEMBL1201862, “PubChem BioAssay data set” (2004).
The source made the active and inactive calls.

Tests used:
[1] = Luminescence Cell-Based Dose Retest to Confirm Inhibitors of Cancer Stem Cells. [Related pubchem assays (depositor defined):AID2717, AID2721]; assay type: functional; conditions: Homo sapiens
[2] = molecular target: Scavenger receptor class B member 1 (Mus musculus, UniProt Q61009); assay: mouse SR-BI DiI-HDL uptake blockers – ldlA[mSR-BI] cells, fluorescence, cherry pick, dose response (AID 493194); assay type: functional, cell-based;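 further: cellular uptake of fluorescent DiI-labeled HDL measured as cell fluorescence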
Chain of Scavenger receptor class B member 1 (Q61009 whole entry): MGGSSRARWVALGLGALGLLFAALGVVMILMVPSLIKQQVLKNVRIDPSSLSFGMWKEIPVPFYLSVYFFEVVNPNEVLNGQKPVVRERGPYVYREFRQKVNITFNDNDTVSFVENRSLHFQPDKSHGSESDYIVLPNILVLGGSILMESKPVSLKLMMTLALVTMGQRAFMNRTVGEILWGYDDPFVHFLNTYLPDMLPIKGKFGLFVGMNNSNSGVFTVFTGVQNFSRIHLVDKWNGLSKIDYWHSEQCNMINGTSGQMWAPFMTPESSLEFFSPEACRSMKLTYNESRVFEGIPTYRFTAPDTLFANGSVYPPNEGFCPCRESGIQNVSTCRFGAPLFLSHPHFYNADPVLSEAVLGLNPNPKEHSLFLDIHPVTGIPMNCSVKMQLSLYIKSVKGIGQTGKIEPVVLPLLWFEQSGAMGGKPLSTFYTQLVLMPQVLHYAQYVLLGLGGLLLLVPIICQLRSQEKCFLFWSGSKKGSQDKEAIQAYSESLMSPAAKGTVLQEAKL

Streptococcus [3] = assay: GAS UMAA2166 growth inhibition – luminescence, BacTiterGlo, counter-screen for streptokinase expression inhibitor project, dose response (AID 1915); assay type: functional, organism-based;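 further: potency for reduction of bacterial viability or growth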
Streptococcus [4] = assay: Luminescence Microorganism-Based Dose Response Follow up to Identify Compounds Cytotoxic to Streptococcus. [Related pubchem assays: 1677 (Project Summary), 1915, 1914, 1902 (Retest at Dose), 1900 (Counter Screen), 1662 (Primary HTS)]; assay type: functional, organism-based
[5] = tested on: Streptococcus sp. 'group A'; assay: Streptococcus pyogenes SK(-)GAS viability under kanamycin – luminescence, BacTiterGlo, confirmation, counter-screen for streptokinase expression inhibitor project, dose response (AID 1900); assay type: functional, organism-based
Streptokinase A = molecular target: T1, Streptokinase A (Streptococcus pyogenes serotype M1, UniProt P10520); assay: viability-normalized secreted streptokinase activity reduction – plasminogen activation absorbance, OD405, dose response (AID 1914); assay type: functional, Streptococcus pyogenes M1 GAS;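 further: secreted streptokinase activity via plasminogen activation per viability signal from cell pellet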
T1 sequence (P10520 whole entry): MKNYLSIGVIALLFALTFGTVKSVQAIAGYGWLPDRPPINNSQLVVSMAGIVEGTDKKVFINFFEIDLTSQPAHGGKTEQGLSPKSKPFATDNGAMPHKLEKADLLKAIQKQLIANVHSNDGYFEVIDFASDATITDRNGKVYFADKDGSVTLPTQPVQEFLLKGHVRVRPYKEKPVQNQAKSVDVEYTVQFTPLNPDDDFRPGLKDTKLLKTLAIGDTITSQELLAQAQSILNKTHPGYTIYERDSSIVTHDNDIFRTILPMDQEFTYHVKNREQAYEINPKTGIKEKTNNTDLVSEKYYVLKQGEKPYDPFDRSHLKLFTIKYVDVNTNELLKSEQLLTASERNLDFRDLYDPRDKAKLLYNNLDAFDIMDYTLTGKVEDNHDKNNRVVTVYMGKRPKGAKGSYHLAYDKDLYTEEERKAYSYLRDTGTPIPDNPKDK

[6] = molecular target: Induced myeloid leukemia cell differentiation protein Mcl-1 (Homo sapiens, UniProt Q07820); assay: blockers of MCL1 binding to BIM peptide – biochemical, fluorescence polarization, BIM-BH3 peptide, 1536-well, dose response (AID 2217)
Bcl-2-like protein 1 = Bcl-2-like protein 1 (Homo sapiens, UniProt Q07817); assay: blockers of BCLXL peptide binding – biochemical, fluorescence polarization, 1536-well, selectivity assay for MCL1 inhibitor project, dose response (AID 2218)
Chain of Bcl-2-like protein 1 (Q07817 whole entry): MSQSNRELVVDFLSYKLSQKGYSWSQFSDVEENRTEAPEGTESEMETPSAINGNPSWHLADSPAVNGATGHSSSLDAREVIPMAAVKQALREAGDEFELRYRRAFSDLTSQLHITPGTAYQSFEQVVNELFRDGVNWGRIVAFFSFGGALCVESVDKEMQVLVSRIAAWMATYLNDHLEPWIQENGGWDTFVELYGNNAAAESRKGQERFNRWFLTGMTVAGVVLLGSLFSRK

[7] = molecular target: 26S proteasome non-ATPase regulatory subunit 14 (Homo sapiens, UniProt O00487); assay: inhibition of proteasome subunit RPN11 – biochemical, fluorescence polarization, uHTS hits, confirmation (AID 602368); assay type: functional
Prothrombin = Prothrombin (Bos taurus, UniProt P00735); assay: thrombin protease inhibitors – biochemical, fluorescence polarization, uHTS hits, dose response (AID 602369); assay type: functional
[8] = molecular target: 72 kDa type IV collagenase (Homo sapiens, UniProt P08253); assay: Dose Response validation of uHTS RPN11 inhibitor hits using a MMP-2 Fluorescence assay.; assay type: functional
Chain of 72 kDa type IV collagenase (P08253 whole entry): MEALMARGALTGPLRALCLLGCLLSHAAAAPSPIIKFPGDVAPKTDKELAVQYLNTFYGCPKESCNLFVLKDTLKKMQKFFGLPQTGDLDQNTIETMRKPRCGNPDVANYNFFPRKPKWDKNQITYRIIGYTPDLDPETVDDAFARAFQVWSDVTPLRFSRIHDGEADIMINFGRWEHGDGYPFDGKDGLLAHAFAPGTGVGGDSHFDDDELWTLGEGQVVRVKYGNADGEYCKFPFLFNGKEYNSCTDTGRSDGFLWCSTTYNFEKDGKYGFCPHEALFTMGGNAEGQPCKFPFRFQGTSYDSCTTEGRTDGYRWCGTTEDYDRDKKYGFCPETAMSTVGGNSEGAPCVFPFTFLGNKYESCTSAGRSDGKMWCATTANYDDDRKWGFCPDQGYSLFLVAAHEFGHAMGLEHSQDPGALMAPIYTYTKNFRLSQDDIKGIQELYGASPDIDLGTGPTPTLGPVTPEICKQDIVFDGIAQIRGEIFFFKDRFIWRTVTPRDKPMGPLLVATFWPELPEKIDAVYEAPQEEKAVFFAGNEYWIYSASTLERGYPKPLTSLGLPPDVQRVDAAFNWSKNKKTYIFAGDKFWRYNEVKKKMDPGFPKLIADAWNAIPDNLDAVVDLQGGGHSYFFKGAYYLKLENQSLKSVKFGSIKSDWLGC

Hexokinase HKDC1 = Hexokinase HKDC1 (Homo sapiens, UniProt Q2TB90); assay: inhibition of HKDC1 glucose phosphorylation – biochemical, W721R variant, dose response (AID 504729); assay type: functional
Chain of Hexokinase HKDC1 (Q2TB90 whole entry): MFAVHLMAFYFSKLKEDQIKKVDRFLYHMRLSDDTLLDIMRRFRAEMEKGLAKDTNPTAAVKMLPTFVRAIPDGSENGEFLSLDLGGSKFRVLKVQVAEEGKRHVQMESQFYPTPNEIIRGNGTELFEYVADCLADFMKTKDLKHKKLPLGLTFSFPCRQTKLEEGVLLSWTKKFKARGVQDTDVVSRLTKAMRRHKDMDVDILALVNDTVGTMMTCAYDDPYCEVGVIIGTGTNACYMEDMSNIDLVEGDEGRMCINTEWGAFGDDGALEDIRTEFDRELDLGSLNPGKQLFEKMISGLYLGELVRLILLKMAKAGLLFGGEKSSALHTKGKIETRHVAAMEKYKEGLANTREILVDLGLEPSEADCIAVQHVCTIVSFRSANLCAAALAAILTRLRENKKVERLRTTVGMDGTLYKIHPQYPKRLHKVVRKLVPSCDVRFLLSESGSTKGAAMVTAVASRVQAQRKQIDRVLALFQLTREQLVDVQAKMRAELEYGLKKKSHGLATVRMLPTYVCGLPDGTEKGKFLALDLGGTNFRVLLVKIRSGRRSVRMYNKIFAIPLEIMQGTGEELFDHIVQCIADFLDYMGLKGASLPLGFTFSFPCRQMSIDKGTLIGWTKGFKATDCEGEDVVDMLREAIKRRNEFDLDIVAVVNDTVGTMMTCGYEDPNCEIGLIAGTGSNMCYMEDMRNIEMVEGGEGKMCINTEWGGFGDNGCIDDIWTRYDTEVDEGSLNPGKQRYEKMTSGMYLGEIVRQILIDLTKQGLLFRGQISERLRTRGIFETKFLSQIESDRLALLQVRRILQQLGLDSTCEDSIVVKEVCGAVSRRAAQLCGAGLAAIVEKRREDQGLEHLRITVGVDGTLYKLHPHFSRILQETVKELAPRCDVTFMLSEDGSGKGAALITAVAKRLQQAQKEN

[9] = molecular target: DNA (cytosine-5)-methyltransferase 1 (Homo sapiens, UniProt P26358); assay: inhibition of DNA methylation by DNMT1 – biochemical, fluorescent molecular beacon, confirmation (AID 602386); assay type: functional
Chain of DNA (cytosine-5)-methyltransferase 1 (P26358 whole entry): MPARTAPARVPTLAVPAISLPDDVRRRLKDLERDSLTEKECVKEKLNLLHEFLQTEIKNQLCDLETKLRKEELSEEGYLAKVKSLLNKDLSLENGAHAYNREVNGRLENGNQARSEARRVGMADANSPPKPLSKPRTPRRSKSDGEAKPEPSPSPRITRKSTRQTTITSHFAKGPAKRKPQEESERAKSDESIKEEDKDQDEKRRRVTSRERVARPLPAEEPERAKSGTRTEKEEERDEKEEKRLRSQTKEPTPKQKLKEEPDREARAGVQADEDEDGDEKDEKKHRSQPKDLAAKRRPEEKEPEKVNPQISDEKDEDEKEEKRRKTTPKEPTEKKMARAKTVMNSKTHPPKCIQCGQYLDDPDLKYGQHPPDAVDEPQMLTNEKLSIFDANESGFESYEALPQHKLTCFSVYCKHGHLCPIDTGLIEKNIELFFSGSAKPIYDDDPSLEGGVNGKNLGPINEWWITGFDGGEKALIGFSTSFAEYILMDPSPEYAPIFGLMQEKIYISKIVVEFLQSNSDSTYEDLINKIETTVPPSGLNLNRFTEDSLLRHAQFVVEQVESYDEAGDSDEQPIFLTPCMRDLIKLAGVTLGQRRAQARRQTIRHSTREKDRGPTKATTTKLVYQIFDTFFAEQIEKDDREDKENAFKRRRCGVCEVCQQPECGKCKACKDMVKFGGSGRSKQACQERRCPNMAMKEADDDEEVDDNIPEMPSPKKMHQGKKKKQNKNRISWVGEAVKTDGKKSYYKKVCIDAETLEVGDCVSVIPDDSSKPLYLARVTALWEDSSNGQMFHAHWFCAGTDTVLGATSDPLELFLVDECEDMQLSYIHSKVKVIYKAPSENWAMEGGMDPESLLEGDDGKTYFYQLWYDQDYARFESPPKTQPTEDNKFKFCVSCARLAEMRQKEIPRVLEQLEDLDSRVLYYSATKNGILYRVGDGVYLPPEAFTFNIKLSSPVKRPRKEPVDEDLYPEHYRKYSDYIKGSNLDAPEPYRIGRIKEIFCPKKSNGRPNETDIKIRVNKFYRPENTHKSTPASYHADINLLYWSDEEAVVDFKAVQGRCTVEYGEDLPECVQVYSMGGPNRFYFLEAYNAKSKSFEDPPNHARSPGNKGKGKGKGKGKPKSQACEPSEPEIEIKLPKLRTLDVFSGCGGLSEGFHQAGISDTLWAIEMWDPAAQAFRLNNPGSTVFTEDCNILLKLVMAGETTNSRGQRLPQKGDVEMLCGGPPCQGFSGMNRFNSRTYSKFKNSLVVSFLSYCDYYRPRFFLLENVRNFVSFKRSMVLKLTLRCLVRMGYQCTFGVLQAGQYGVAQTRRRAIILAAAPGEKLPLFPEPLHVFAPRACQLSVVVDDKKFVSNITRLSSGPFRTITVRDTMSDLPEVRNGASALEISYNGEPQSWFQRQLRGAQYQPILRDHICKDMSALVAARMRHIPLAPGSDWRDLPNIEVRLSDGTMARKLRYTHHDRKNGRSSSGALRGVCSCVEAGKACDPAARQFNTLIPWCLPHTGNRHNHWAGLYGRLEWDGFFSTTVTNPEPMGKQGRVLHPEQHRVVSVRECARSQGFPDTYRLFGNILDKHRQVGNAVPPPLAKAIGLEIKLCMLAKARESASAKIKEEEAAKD

SUMO-activating enzyme [10] = molecular target: T2, SUMO-activating enzyme (Homo sapiens, UniProt Q9UBT2); assay: blockers of SAE1/SAE2–UBC9 SUMO transfer – biochemical, HTRF, uHTS, primary screen (AID 2006); assay type: protein-complex assay
T2 sequence (Q9UBE0 whole entry): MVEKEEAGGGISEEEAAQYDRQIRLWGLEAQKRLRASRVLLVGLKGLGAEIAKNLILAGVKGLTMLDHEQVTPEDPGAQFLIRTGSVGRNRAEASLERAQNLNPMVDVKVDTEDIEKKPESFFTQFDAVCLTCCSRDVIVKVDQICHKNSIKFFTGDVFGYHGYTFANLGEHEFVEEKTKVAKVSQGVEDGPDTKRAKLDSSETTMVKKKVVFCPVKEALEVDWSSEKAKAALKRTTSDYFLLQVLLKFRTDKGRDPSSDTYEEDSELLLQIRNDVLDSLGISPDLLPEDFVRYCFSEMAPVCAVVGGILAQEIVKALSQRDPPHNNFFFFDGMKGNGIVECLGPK
T2 sequence (Q9UBT2 whole entry): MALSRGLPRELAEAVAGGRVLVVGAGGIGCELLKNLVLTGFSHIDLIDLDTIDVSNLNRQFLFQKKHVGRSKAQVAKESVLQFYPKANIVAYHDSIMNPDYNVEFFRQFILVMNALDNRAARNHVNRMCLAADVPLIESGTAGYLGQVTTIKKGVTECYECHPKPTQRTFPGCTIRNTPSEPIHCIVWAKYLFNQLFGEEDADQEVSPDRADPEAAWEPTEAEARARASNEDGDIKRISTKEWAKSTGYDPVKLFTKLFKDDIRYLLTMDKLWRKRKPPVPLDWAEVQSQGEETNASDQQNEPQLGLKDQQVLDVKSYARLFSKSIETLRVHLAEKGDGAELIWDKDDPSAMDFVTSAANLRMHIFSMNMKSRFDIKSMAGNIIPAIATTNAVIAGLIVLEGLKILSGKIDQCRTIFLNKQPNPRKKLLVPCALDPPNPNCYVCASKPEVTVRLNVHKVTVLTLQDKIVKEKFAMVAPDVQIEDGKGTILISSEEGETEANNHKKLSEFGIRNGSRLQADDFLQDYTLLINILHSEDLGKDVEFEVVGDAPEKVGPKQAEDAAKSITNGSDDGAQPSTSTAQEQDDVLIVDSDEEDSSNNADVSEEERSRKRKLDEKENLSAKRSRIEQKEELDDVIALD

SUMO-activating enzyme [11] = molecular target: T2, SUMO-activating enzyme; assay: blockers of UBC9-mediated SUMO conjugation – biochemical, AlphaScreen, SUMOylation inhibitor project, confirmation (AID 2018); assay type: functional
[12] = molecular target: T3, Neuropeptides B/W receptor type 1 (Homo sapiens, UniProt P48145); assay: human NPBW1 receptor blockade, IC50 – cell-based, fluorescence, dose response, late-stage follow-up (AID 463251); assay type: functional
T3 sequence (P48145 whole entry): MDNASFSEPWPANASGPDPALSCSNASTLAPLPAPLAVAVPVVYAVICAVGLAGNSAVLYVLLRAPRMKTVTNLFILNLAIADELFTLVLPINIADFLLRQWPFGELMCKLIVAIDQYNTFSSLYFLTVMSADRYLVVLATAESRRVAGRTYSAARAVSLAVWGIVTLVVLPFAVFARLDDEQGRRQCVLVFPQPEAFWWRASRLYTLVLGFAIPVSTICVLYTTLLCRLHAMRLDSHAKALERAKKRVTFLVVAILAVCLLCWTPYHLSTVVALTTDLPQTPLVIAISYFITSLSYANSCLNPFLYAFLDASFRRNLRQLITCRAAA

[13] = molecular target: Melanin-concentrating hormone receptor 1 (Homo sapiens, UniProt Q99705); assay: Late-stage fluorescence-based counterscreen for antagonists of the G-protein coupled receptor 7 (GPR7): cell-based dose response assay to identify antagonists of the melanin-concentrating hormone receptor 1 (MCHR1). [Related pubchem assays (depositor defined):AID1861, AID1880, AID1952, AID2148, AID2251, AID2257, AID485339]; assay type: functional;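 further: stimulated with 30 nM MCH peptide agonist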

## OC1CCN(c2cc(-c3ccccc3)nc3cc(-c4ccc(F)cc4)nn23)CC1
[1]
  AC50: 4.72 µM (active)
[2]
  AC50: 11.8 µM (active)

## CCCCn1c(=O)c(C(=O)NCc2ccccc2)c(O)c2ccccc21
Streptococcus [3]
  EC50: > 150 µM (inconclusive)
Streptococcus [4]
  EC50: > 500 µM (not active)
[1]
  AC50: 8.37 µM (active)
[5]
  EC50: 17.5 µM (active)
Streptokinase A
  EC50: 6.35 µM (active)

## N#Cc1c(SCC(=O)Nc2nc3ccc(Br)cc3s2)sc2c(O)cc(=O)[nH]c12
[6]
  IC50: > 109 µM (not active)
Bcl-2-like protein 1
  IC50: > 109 µM (not active)
[7]
  IC50: 12.8 µM (active)
Prothrombin
  IC50: 71.2 µM (active)
[8]
  IC50: 3.94 µM (active)
Hexokinase HKDC1
  IC50: 24.8 µM (inactive)
[9]
  IC50: 8.28 µM (active)

## COc1ccc(OC)c(/C=C2\SC(NNC(=O)c3ccc4ccccc4c3)=NC2=O)c1
SUMO-activating enzyme [10]
  IC50: 18.1 µM (active)
[1]
  AC50: 2.36 µM (active)
SUMO-activating enzyme [11]
  IC50: 2.14 µM (active)

## CCOc1ccc(CCOc2c(Cl)cnn(-c3ccc(C)cc3)c2=O)cc1OCC
[12]
  IC50: 5.5 µM (active)
[13]
  IC50: 14.5 µM (inactive)
